Experimental data: PubChem BioAssay (NCI)
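Five compound concentrations were applied to cells in 96-well plates for 48 hours; endpoints were derived by simple linear interpolation of the resulting dose-response curve. Here, GI50 denotes the concentration required for 50% inhibition of growth. The concentration for full growth arrest is given as TGI.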

Experiments:
Test in all cases: NCI anticancer screen, dose series, 48 h
[1] = system: SF-268 CNS
[2] = system: MCF7 breast
[3] = system: CAKI-1 renal
[4] = system: PC-3 prostate
[5] = system: OVCAR-8 ovarian
[6] = system: CCRF-CEM leukemia
[7] = system: SF-295 CNS
[8] = system: SK-OV-3 ovarian
[9] = system: UACC-257 melanoma
[10] = system: MDA-MB-435
[11] = system: IGROV1 ovarian
[12] = system: OVCAR-5 ovarian
[13] = system: NCI/ADR-RES ovarian
[14] = system: KM12 colon
[15] = system: COLO 205 colon
[16] = system: UACC-62 melanoma
[17] = system: K-562 leukemia
[18] = system: HL-60(TB) leukemia
[19] = system: ACHN renal
[20] = system: EKVX NSCLC
[21] = system: SK-MEL-5 melanoma
[22] = system: SK-MEL-2 melanoma
[23] = system: NCI-H522 lung
[24] = system: U251 CNS
[25] = system: NCI-H460 lung
[26] = system: RPMI-8226 leukemia
[27] = system: NCI-H23 lung
[28] = system: OVCAR-3 ovarian
[29] = system: M14 melanoma
[30] = system: HCT-116 colon
[31] = system: HOP-62 NSCLC
[32] = system: LOX IMVI melanoma
[33] = system: HOP-92 NSCLC
[34] = system: MDA-MB-231 breast
[35] = system: A549 NSCLC
[36] = system: HCT-15 colon
[37] = system: SK-MEL-28 melanoma
[38] = system: OVCAR-4 ovarian
[39] = system: SNB-19 CNS
[40] = system: 786-0 renal
[41] = system: DU-145 prostate
[42] = system: SW-620 colon
[43] = system: HS 578T breast
[44] = system: BT-549 breast
[45] = system: UO-31 renal
[46] = system: NCI-H226 lung
[47] = system: SR leukemia
[48] = system: MOLT-4 leukemia
[49] = system: TK-10 renal
[50] = system: RXF 393 renal
[51] = system: SN12C renal

Cc1ccc(NC(=O)c2cc(S(=O)(=O)Nc3nnc(-c4ccccc4)c(-c4ccccc4)n3)c(SCc3ccccc3)cc2Cl)cc1
GI50 [1]: 20.2 µM
TGI [1]: 84.5 µM
GI50 [2]: 24.4 µM
TGI [2]: > 100 µM
GI50 [3]: 21.2 µM
TGI [3]: 40.7 µM
GI50 [4]: 18.2 µM
TGI [4]: 49.1 µM
GI50 [5]: 29.4 µM
TGI [5]: 76.8 µM
GI50 [6]: 49.5 µM
TGI [6]: > 100 µM
GI50 [7]: 19.4 µM
TGI [7]: 42.2 µM
GI50 [8]: 22 µM
TGI [8]: 41.6 µM
GI50 [9]: 20.7 µM
TGI [9]: 41.7 µM
GI50 [10]: 15.9 µM
TGI [10]: 35 µM
GI50 [11]: 26.9 µM
TGI [11]: 93.7 µM
GI50 [12]: 19.4 µM
TGI [12]: 33.8 µM
GI50 [13]: 20.4 µM
TGI [13]: 41.2 µM
GI50 [14]: 21.5 µM
TGI [14]: 50.7 µM
GI50 [15]: 25 µM
TGI [15]: 55.6 µM
GI50 [16]: 16.3 µM
TGI [16]: 31.2 µM
GI50 [17]: 23.8 µM
TGI [17]: > 100 µM
GI50 [18]: 17.2 µM
TGI [18]: 41.6 µM
GI50 [19]: 17 µM
TGI [19]: 31.3 µM
GI50 [20]: 18 µM
TGI [20]: 37.6 µM
GI50 [21]: 19.2 µM
TGI [21]: 37.6 µM
GI50 [22]: 49 µM
TGI [22]: > 100 µM
GI50 [23]: 42.4 µM
TGI [23]: > 100 µM
GI50 [24]: 13.7 µM
TGI [24]: 28.7 µM
GI50 [25]: 26.4 µM
TGI [25]: > 100 µM
GI50 [26]: 11.8 µM
TGI [26]: 44.8 µM
GI50 [27]: 18.1 µM
TGI [27]: 34.2 µM
GI50 [28]: 17.5 µM
TGI [28]: 35.1 µM
GI50 [29]: 34.8 µM
TGI [29]: > 100 µM
GI50 [30]: 28.5 µM
TGI [30]: 75.7 µM
GI50 [31]: 36.1 µM
TGI [31]: > 100 µM
GI50 [32]: 13.3 µM
TGI [32]: 28.6 µM
GI50 [33]: 18.8 µM
TGI [33]: 42.9 µM
GI50 [34]: 19.4 µM
TGI [34]: 42.2 µM
GI50 [35]: 18.4 µM
TGI [35]: 34.3 µM
GI50 [36]: 17.5 µM
TGI [36]: 39.1 µM
GI50 [37]: 29.5 µM
TGI [37]: > 100 µM
GI50 [38]: 25.7 µM
TGI [38]: 92.2 µM
GI50 [39]: 20.4 µM
TGI [39]: 57.1 µM
GI50 [40]: 33.9 µM
TGI [40]: > 100 µM
GI50 [41]: 20 µM
TGI [41]: 37.9 µM
GI50 [42]: 25.1 µM
TGI [42]: 55.4 µM
GI50 [43]: 25.4 µM
TGI [43]: 57.4 µM
GI50 [44]: 19.8 µM
TGI [44]: 45.9 µM
GI50 [45]: 25.3 µM
TGI [45]: 63.9 µM
GI50 [46]: 21.4 µM
TGI [46]: 56 µM
GI50 [47]: 36 µM
TGI [47]: > 100 µM
GI50 [48]: > 100 µM
TGI [48]: > 100 µM
GI50 [49]: 18.4 µM
TGI [49]: 40.6 µM
GI50 [50]: 25.6 µM
TGI [50]: 47.2 µM
GI50 [51]: 18.2 µM
TGI [51]: 43.9 µM
